Measurements reported in patent US8552018B2, “Substituted tricyclic compounds as protein kinase inhibitors” (Arizona Board of Regents on behalf of the University of …, priority 2003, dated 2013).

Assays:
[1] = system: Akt phosphorylation in LNCaP prostate carcinoma cells; experiment: Immunoblot for phospho-Akt (S473); assay type: cell-based; conditions: 48 hours
Description: LNCaP prostate carcinoma cells were treated with MP-470, in combinations with Tarceva® and Gleevec®, for 48 hours. Following incubation, cells were lysed and total protein subjected to immunoblot analysis for total Akt and phospho-Akt (S473).

[2] = system: pancreatic cancer cell lines MIAPaCa-2 and PANC-1; experiment: Cancer cell cytotoxicity assay, range over both pancreatic lines; assay type: cell-based; conditions: potency order
Description: To validate the hypothesis that the designed c-kit/PDGFR tyrosine kinase inhibitors mediate GIST882 cell killing and PDGFR-mediated cell killing of pancreatic cancer cell lines (CFPAC-1, PANC-1 and MIA PaCa-2), an in vitro cytotoxicity assay was performed. The GIST882 cell line used in this study has a c-kit gain-of-function mutation (K642E). […] First the cells were cultured. GIST882 cells were provided by Dr. Jonathan A. Fletcher (Dana-Farber Cancer Institute, Boston, Mass.). PANC-1 and MIAPaCa-2 cells were provided by Dr. Daniel Von Hoff (Arizona Cancer Center, Tucson, Ariz.). […] All the cell lines were incubated in a humidified incubator at 37° C. with 5% CO2 atmosphere.
After incubation for 4 days at 37° C. in a humidified incubator, the cells were fixed with 10% Trichloroacetic acid solution (Catalog No. 490-10, Sigma). Subsequently, they were labeled with 0.04% Sulforhodamine B (S9012, Sigma) in 1% acetic acid. […] The absorbance of each well was read on a plate reader (Wallac Vector^2, PerkinElmer) at the wavelength of 570 nm. Data were expressed as the percentage of survival of control calculated from the absorbance corrected for background absorbance. The surviving percent of cells was determined by dividing the mean absorbance values of the […] by the mean absorbance values of the control and multiplying by 100.

Flt3(D835Y)(h) = Flt3(D835Y)(h) (Homo sapiens, UniProt P36888, D835Y); experiment: Kinase profile screen; assay type: biochemical; conditions: 1 uM
Description: (§1) In order to determine the specificity and potential alternative targets for MP470, kinase profile screen were performed utilizing the KinaseProfiler™ Screen (Upstate Corp) and Select Screen™ kinase profiling (Invitrogen). Between the two screens, 53 different kinases were tested, representing a broad proportion of the human kinome. MP470 was screened at a concentration of 1 μM against both wildtype and mutant kinases.

cKit(V654A)(h) = cKit(V654A)(h) (Homo sapiens, UniProt P10721, V654A); experiment: Kinase profile screen; assay type: biochemical; conditions: 1 uM
Chain of cKit(V654A)(h) (P10721 26-976 V654A): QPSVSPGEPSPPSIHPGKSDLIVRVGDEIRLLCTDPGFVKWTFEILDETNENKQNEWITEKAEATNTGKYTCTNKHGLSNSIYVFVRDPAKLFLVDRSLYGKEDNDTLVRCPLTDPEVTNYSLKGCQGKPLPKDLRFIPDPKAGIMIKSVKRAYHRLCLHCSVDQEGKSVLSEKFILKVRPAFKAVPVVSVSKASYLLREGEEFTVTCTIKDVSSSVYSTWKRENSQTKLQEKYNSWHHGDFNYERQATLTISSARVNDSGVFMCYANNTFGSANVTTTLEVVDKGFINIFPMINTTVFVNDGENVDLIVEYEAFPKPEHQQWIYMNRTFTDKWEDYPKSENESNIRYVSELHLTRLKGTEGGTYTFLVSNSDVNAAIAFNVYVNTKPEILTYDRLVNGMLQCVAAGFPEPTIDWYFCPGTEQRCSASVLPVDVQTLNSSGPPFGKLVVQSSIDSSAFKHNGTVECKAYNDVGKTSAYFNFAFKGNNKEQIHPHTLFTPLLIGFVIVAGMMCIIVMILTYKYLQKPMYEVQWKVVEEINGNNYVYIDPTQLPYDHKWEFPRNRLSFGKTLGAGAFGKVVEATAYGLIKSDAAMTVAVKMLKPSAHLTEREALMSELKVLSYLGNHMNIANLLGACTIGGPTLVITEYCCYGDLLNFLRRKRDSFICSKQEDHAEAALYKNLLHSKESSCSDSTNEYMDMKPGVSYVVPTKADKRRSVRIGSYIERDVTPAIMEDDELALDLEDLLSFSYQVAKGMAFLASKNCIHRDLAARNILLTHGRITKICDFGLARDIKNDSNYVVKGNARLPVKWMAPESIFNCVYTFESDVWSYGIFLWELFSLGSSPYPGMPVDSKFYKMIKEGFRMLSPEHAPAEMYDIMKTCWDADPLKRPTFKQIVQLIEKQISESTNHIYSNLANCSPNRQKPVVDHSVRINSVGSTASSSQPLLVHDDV
Description: as §1

PDGFRα(D842V)(h) = PDGFRα(D842V)(h) (Homo sapiens, UniProt P16234, D842V); experiment: Kinase profile screen; assay type: biochemical; conditions: 1 uM
Chain of PDGFRα(D842V)(h) (P16234 24-1089 D842V): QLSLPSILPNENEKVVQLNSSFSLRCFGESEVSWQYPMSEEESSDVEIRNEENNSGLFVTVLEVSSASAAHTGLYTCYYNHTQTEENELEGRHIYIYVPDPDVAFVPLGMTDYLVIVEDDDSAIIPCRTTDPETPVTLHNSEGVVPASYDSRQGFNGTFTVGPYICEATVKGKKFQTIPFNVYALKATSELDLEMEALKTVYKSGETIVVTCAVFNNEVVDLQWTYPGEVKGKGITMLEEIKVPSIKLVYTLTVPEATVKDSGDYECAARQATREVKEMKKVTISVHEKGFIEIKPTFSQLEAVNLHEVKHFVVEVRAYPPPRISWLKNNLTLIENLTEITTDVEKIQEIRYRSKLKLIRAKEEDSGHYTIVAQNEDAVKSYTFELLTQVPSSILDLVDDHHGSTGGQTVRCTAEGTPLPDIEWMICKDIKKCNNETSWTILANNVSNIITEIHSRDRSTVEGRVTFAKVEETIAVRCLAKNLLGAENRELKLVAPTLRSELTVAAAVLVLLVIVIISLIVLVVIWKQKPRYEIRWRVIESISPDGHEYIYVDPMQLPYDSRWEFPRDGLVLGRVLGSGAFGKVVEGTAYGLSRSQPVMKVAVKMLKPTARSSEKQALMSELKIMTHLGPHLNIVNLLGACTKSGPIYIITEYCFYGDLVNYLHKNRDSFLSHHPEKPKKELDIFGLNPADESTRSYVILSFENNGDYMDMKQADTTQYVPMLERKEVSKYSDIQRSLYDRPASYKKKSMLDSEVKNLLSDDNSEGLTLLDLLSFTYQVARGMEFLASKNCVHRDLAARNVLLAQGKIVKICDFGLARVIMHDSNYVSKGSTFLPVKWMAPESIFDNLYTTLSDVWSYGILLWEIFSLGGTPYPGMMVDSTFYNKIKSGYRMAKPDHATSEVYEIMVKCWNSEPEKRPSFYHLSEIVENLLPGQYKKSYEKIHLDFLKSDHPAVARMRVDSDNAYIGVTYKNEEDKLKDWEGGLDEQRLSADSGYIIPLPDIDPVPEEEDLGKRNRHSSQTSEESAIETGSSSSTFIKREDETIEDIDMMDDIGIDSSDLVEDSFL
Description: as §1

cKit(D816V)(h) = cKit(D816V)(h) (Homo sapiens, UniProt P10721, D816V); experiment: Kinase profile screen; assay type: biochemical; conditions: 1 uM
Chain of cKit(D816V)(h) (P10721 26-976 D816V): as the sequence (P10721 26-976 V654A) above, with A629V, D791V counted along it
Description: as §1

cKit(V560G)(h) = cKit(V560G)(h) (Homo sapiens, UniProt P10721, V560G); experiment: Kinase profile screen; assay type: biochemical; conditions: 1 uM
Chain of cKit(V560G)(h) (P10721 26-976 V560G): as the sequence (P10721 26-976 V654A) above, with V535G, A629V counted along it
Description: as §1

PDGFRα(V561D)(h) = PDGFRα(V561D)(h) (Homo sapiens, UniProt P16234, V561D); experiment: Kinase profile screen; assay type: biochemical; conditions: 1 uM
Chain of PDGFRα(V561D)(h) (P16234 24-1089 V561D): as the sequence (P16234 24-1089 D842V) above, with V538D, V819D counted along it
Description: as §1

[3] = system: A549 non-small cell lung cancer (NSCLC) cells; experiment: Flow cytometric analysis (sub-G1 peak); assay type: cell-based; conditions: A549, 48 hours, MP-470 alone
Description: (§2) In addition, A549 non-small cell lung cancer (NSCLC) cells and LNCaP prostate carcinoma cells were treated with MP-470 in the presence or absence of Tarceva® for 48 hours and subjected to flow cytometric analysis. Nocodazole was also included to induce a G2/M arrest, in an effort to determine if these compounds could overcome such a block. Left-hand columns for each cell type represent cells with no additional treatment, while right-hand columns represent cells pretreated overnight with nocodazole (0.3 ug/mL) to induce G2/M arrest.

[4] = system: LNCaP prostate carcinoma cells; experiment: Flow cytometric analysis (sub-G1 peak); assay type: cell-based; conditions: 48 hours, MP-470 alone
Description: as §2

c-Kit [5] = target: T1, c-Kit (Homo sapiens, UniProt P10721); experiment: Autophosphorylation assay with γ-32P-ATP; assay type: biochemical; conditions: FIG. 28A
T1 sequence (P10721 26-976): as the sequence (P10721 26-976 V654A) above, with A629V counted along it
Description: (§3) Enzymes were incubated with the appropriate concentration of inhibitor and radiolabeled γ-^32P-ATP. After 30 minutes, the reaction mixtures were electrophoresed on an acrylamide gel and autophosphorylation, quantitated by the amount of radioactivity incorporated into the enzyme, was assayed.

PDGFRa = PDGFRa (Homo sapiens, UniProt P16234); experiment: Autophosphorylation assay with γ-32P-ATP; assay type: biochemical; conditions: FIG. 28B
Chain of PDGFRa (P16234 24-1089): as the sequence (P16234 24-1089 D842V) above, with V819D counted along it
Description: as §3

[6] = system: LNCaP prostate carcinoma cells; experiment: Apoptosis assays (morphology, PARP cleavage immunoblot); assay type: cell-based; conditions: 48 hours
Description: Induction of apoptosis by MP-470 (Compound III-1-3) was further evaluated in LNCaP prostate carcinoma cells using three different assays. First, cells were treated with MP-470 at a variety of concentrations, with or without addition of Tarceva® (erlotinib) for 48 hours. Cells were then examined for the morphological characteristics of apoptosis (membrane blebbing, nuclear fragmentation, etc.) and scored according to a binary scale (apoptotic versus non-apoptotic).
As a more quantifiable means of determining apoptosis induction, cells were also lysed and total protein was used in an immunoblot assay for poly-[ADP ribose] polymerase (PARP) cleavage, a hallmark of apoptosis.

cAMP-PK = cAMP-PK (Homo sapiens, UniProt P17612); experiment: Kinase-Glo Luminescent Kinase Assay (Examples 27, 33); assay type: biochemical
Description: (§4) The following conditions were used:
(§5) The protein serine-threonine kinases cAMP PK, MKK6 and Cdk1 were tested alongside Aurora-2 kinase to evaluate the activity of compound (II-2-6) against these protein kinases. Briefly, in this assay kinase activity is determined by quantifying the amount of ATP remaining in solution following the kinase reaction by measuring the relative light units (RLU) produced by luciferase using a luminometer. Percent activity was determined for individual compounds by comparing luminometer readings of drug-treated reactions to controls containing no drug (RLUNo Inhib) and no Aurora-2 enzyme (RLUNo Kinase) in the following equation: […]

CDK1 = CDK1 (Homo sapiens, UniProt P06493); experiment: as above; assay type: biochemical
Chain of CDK1 (P06493 whole entry, species assumed): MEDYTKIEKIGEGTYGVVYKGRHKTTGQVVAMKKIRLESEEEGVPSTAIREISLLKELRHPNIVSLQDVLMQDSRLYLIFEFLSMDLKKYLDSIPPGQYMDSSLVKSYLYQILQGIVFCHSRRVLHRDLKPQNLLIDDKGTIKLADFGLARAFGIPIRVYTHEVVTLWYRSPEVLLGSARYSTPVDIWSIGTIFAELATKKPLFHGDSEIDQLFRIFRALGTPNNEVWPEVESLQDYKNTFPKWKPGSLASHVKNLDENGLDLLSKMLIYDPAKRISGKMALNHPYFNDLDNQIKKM
Chain of CDK1 (P14635 whole entry partner, species assumed): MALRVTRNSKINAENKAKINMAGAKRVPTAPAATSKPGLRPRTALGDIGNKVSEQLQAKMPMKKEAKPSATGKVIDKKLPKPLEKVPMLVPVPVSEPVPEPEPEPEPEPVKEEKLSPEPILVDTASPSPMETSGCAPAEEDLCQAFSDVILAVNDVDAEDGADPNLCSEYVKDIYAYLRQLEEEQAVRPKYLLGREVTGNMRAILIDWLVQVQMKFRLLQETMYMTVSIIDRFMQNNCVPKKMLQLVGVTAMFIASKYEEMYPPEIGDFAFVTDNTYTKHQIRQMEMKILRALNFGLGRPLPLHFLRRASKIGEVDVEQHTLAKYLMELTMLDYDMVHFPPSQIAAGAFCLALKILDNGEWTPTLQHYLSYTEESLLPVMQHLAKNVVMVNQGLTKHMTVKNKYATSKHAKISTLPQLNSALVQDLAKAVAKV
Description: as §4, §5

MKK6 = MKK6 (Homo sapiens, UniProt P52564); experiment: as above; assay type: biochemical
Chain of MKK6 (P52564 whole entry, species assumed): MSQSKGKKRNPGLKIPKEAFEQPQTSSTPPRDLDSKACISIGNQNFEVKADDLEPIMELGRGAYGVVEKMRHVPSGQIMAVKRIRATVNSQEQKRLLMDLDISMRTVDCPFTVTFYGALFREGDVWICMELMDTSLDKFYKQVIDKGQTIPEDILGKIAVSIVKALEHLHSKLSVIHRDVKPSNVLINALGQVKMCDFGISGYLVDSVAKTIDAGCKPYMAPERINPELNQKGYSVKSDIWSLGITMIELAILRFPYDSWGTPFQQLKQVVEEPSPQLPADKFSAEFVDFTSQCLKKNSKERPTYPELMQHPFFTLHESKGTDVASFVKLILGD
Description: as §4, §5

c-Kit [7] = target: T1, c-Kit; experiment: c-kit kinase inhibitory activity (stated in Example 32); assay type: biochemical

## S=C(NCc1ccc2c(c1)OCO2)N1CCN(c2ncnc3c2oc2ccccc23)CC1 [HPK56, 4-Benzo[4,5]furo[3,2-d]pyrimidin-4-yl-piperazine-1-carbothioic acid (benzo[1,3]dioxol-5-ylmethyl)-amide]
[1]; MP-470 and Tarceva® in combination
  reduction of phosphorylation of Akt: enhanced
[1]; agent alone
  phosphorylation of Akt: reduced in a dose-dependent manner
[2]
  IC50: 2.1 to 3 µM
Flt3(D835Y)(h)
  activity against mutant kinase: activity
cKit(V654A)(h)
  activity against mutant kinase: activity
PDGFRα(D842V)(h)
  activity against mutant kinase: activity
cKit(D816V)(h)
  activity against mutant kinase: activity
cKit(V560G)(h)
  activity against mutant kinase: activity
PDGFRα(V561D)(h)
  activity against mutant kinase: activity
[3]
  apoptosis (sub-G1 peak): induced apoptosis
[4]
  apoptosis (sub-G1 peak): induced apoptosis
c-Kit [5]
  inhibition of c-Kit autophosphorylation (in words): dose-dependent
PDGFRa
  inhibition of PDGFRa autophosphorylation (in words): dose-dependent
[6]; MP-470 alone
  apoptosis induction: dose-dependent increase in apoptosis
[6]; MP-470 in the presence of erlotinib
  apoptosis induction: enhanced

## COc1cc2[nH]c3ncnc(N4CCN(C(=S)Nc5ccc(S(=O)(=O)Nc6ncccn6)cc5)CC4)c3c2cc1OC [HPK62, 4-(6,7-Dimethoxy-9H-1,3,9-triaza-fluoren-4-yl)-piperazine-1-carbothioic acid [4-(pyrimidin-2-ylsulfamoyl)-phenyl]-amide]
cAMP-PK; cAMP PK, FIG. 27
  kinase inhibitory activity (in words): inhibitory activity
cAMP-PK; cAMP-PK, 0.1 μM ATP, 30 μM Kemptide
  IC50: > 100 µM
CDK1; CDK1, 0.1 μM ATP, 30 μM Kemptide
  IC50: 22.3 µM
CDK1; Cdk1, FIG. 27
  kinase inhibitory activity (in words): inhibitory activity
MKK6; MKK6, 0.1 μM ATP, 30 μM Kemptide
  IC50: 6.2 µM
MKK6; MKK6, FIG. 27
  kinase inhibitory activity (in words): inhibitory activity
c-Kit [7]
  inhibitory activity against c-kit kinase (in words): low μM
